# Results taken from PubChem BioAssay (NCI).
#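 In this assay, cells in 96-well plates receive the compound at five concentrations for 48 hours. Endpoints are linearly interpolated between the surrounding concentrations. GI50: concentration for 50% inhibition of growth. TGI: concentration producing complete growth inhibition.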
# Legend:
# Test in all cases: growth of human tumour cells (NCI), 48 h
# HCC-2998 colon = test system: HCC-2998 colon
# SN12C renal = test system: SN12C renal
# MCF7 breast = test system: MCF7 breast
# NCI/ADR-RES ovarian = test system: NCI/ADR-RES ovarian
# SF-539 CNS = test system: SF-539 CNS
# EKVX NSCLC = test system: EKVX NSCLC
# OVCAR-8 ovarian = test system: OVCAR-8 ovarian
# TK-10 renal = test system: TK-10 renal
# OVCAR-4 ovarian = test system: OVCAR-4 ovarian
# MOLT-4 leukemia = test system: MOLT-4 leukemia
# OVCAR-3 ovarian = test system: OVCAR-3 ovarian
# PC-3 prostate = test system: PC-3 prostate
# UO-31 renal = test system: UO-31 renal
# K-562 leukemia = test system: K-562 leukemia
# NCI-H460 lung = test system: NCI-H460 lung
# SF-268 CNS = test system: SF-268 CNS
# COLO 205 colon = test system: COLO 205 colon
# HCT-15 colon = test system: HCT-15 colon
# RXF 393 renal = test system: RXF 393 renal
# SW-620 colon = test system: SW-620 colon
# T-47D breast = test system: T-47D breast
# IGROV1 ovarian = test system: IGROV1 ovarian
# UACC-62 melanoma = test system: UACC-62 melanoma
# RPMI-8226 leukemia = test system: RPMI-8226 leukemia
# SK-MEL-2 melanoma = test system: SK-MEL-2 melanoma
# HL-60(TB) leukemia = test system: HL-60(TB) leukemia
# SNB-75 CNS = test system: SNB-75 CNS
# HCT-116 colon = test system: HCT-116 colon
# A549 NSCLC = test system: A549 NSCLC
# ACHN renal = test system: ACHN renal
# SK-MEL-28 melanoma = test system: SK-MEL-28 melanoma
# NCI-H522 lung = test system: NCI-H522 lung
# MDA-MB-435 = test system: MDA-MB-435
# LOX IMVI melanoma = test system: LOX IMVI melanoma
# SK-MEL-5 melanoma = test system: SK-MEL-5 melanoma
# SF-295 CNS = test system: SF-295 CNS
# A498 renal = test system: A498 renal
# HOP-62 NSCLC = test system: HOP-62 NSCLC
# M14 melanoma = test system: M14 melanoma
# SK-OV-3 ovarian = test system: SK-OV-3 ovarian
# 786-0 renal = test system: 786-0 renal
# U251 CNS = test system: U251 CNS
# DU-145 prostate = test system: DU-145 prostate
# BT-549 breast = test system: BT-549 breast
# SNB-19 CNS = test system: SNB-19 CNS
# KM12 colon = test system: KM12 colon
# OVCAR-5 ovarian = test system: OVCAR-5 ovarian
# MDA-MB-231 breast = test system: MDA-MB-231 breast
# HS 578T breast = test system: HS 578T breast
# HT29 colon = test system: HT29 colon
# MALME-3M melanoma = test system: MALME-3M melanoma
# CAKI-1 renal = test system: CAKI-1 renal
smiles,measurement,setting,value
Fc1ccc(-c2ncn(C3CCNCC3)c2-c2ccnc(Oc3cccc(C(F)(F)F)c3)n2)cc1,GI50,HCC-2998 colon,3.92 µM
same,TGI,HCC-2998 colon,8.35 µM
same,GI50,SN12C renal,3.93 µM
same,TGI,SN12C renal,7.47 µM
same,GI50,MCF7 breast,3.68 µM
same,TGI,MCF7 breast,7.3 µM
same,GI50,NCI/ADR-RES ovarian,4.27 µM
same,TGI,NCI/ADR-RES ovarian,9.03 µM
same,GI50,SF-539 CNS,3.92 µM
same,TGI,SF-539 CNS,7.68 µM
same,GI50,EKVX NSCLC,3.63 µM
same,TGI,EKVX NSCLC,8.3 µM
same,GI50,OVCAR-8 ovarian,4.17 µM
same,TGI,OVCAR-8 ovarian,8.58 µM
same,GI50,TK-10 renal,3.68 µM
same,TGI,TK-10 renal,7.22 µM
same,GI50,OVCAR-4 ovarian,3.62 µM
same,TGI,OVCAR-4 ovarian,7.26 µM
same,GI50,MOLT-4 leukemia,4.15 µM
same,TGI,MOLT-4 leukemia,9.48 µM
same,GI50,OVCAR-3 ovarian,3.88 µM
same,TGI,OVCAR-3 ovarian,7.26 µM
same,GI50,PC-3 prostate,3.7 µM
same,TGI,PC-3 prostate,7.2 µM
same,GI50,UO-31 renal,2.8 µM
same,TGI,UO-31 renal,6.41 µM
same,GI50,K-562 leukemia,3.8 µM
same,TGI,K-562 leukemia,9.12 µM
same,GI50,NCI-H460 lung,3.82 µM
same,TGI,NCI-H460 lung,7.81 µM
same,GI50,SF-268 CNS,3.64 µM
same,TGI,SF-268 CNS,7.37 µM
same,GI50,COLO 205 colon,3.83 µM
same,TGI,COLO 205 colon,7.45 µM
same,GI50,HCT-15 colon,3.79 µM
same,TGI,HCT-15 colon,7.25 µM
same,GI50,RXF 393 renal,2.66 µM
same,TGI,RXF 393 renal,6.42 µM
same,GI50,SW-620 colon,3.56 µM
same,TGI,SW-620 colon,7.03 µM
same,GI50,T-47D breast,2.93 µM
same,TGI,T-47D breast,6.43 µM
same,GI50,IGROV1 ovarian,3.67 µM
same,TGI,IGROV1 ovarian,7.88 µM
same,GI50,UACC-62 melanoma,4.05 µM
same,TGI,UACC-62 melanoma,7.59 µM
same,GI50,RPMI-8226 leukemia,4.87 µM
same,TGI,RPMI-8226 leukemia,11.7 µM
same,GI50,SK-MEL-2 melanoma,4.62 µM
same,TGI,SK-MEL-2 melanoma,8.84 µM
same,GI50,HL-60(TB) leukemia,4.58 µM
same,TGI,HL-60(TB) leukemia,9.6 µM
same,GI50,SNB-75 CNS,2.01 µM
same,TGI,SNB-75 CNS,6.52 µM
same,GI50,HCT-116 colon,3.65 µM
same,TGI,HCT-116 colon,7.29 µM
same,GI50,A549 NSCLC,4.23 µM
same,TGI,A549 NSCLC,7.94 µM
same,GI50,ACHN renal,3.29 µM
same,TGI,ACHN renal,6.47 µM
same,GI50,SK-MEL-28 melanoma,3.62 µM
same,TGI,SK-MEL-28 melanoma,6.93 µM
same,GI50,NCI-H522 lung,4.03 µM
same,TGI,NCI-H522 lung,7.95 µM
same,GI50,MDA-MB-435,3.99 µM
same,TGI,MDA-MB-435,8.15 µM
same,GI50,LOX IMVI melanoma,8.96 µM
same,TGI,LOX IMVI melanoma,14.1 µM
same,GI50,SK-MEL-5 melanoma,3.28 µM
same,TGI,SK-MEL-5 melanoma,6.5 µM
same,GI50,SF-295 CNS,3.92 µM
same,TGI,SF-295 CNS,8.1 µM
same,GI50,A498 renal,1.37 µM
same,TGI,A498 renal,6.91 µM
same,GI50,HOP-62 NSCLC,3.75 µM
same,TGI,HOP-62 NSCLC,7.47 µM
same,GI50,M14 melanoma,4.54 µM
same,TGI,M14 melanoma,8.73 µM
same,GI50,SK-OV-3 ovarian,3.82 µM
same,TGI,SK-OV-3 ovarian,7.31 µM
same,GI50,786-0 renal,3.82 µM
same,TGI,786-0 renal,7.49 µM
same,GI50,U251 CNS,3.61 µM
same,TGI,U251 CNS,7.08 µM
same,GI50,DU-145 prostate,3.99 µM
same,TGI,DU-145 prostate,7.37 µM
same,GI50,BT-549 breast,4.34 µM
same,TGI,BT-549 breast,9.51 µM
same,GI50,SNB-19 CNS,3.94 µM
same,TGI,SNB-19 CNS,7.67 µM
same,GI50,KM12 colon,3.93 µM
same,TGI,KM12 colon,7.36 µM
same,GI50,OVCAR-5 ovarian,3.21 µM
same,TGI,OVCAR-5 ovarian,6.37 µM
same,GI50,MDA-MB-231 breast,3.96 µM
same,TGI,MDA-MB-231 breast,7.56 µM
same,GI50,HS 578T breast,1.98 µM
same,TGI,HS 578T breast,7.07 µM
same,GI50,HT29 colon,2.54 µM
same,TGI,HT29 colon,5.54 µM
same,GI50,MALME-3M melanoma,4.66 µM
same,TGI,MALME-3M melanoma,10.1 µM
same,GI50,CAKI-1 renal,4.38 µM
same,TGI,CAKI-1 renal,9.12 µM
